The subject of data set [1] is PDE1. Nature of the data set: PDE1 inhibition assay. It counts as biochemical. The note with it: 15 nM tritium labelled cAMP, SPA beads, 1 h at room temperature. How it is done:
Reactions were initiated by addition of the cyclic nucleotide substrate, and reactions were allowed to proceed for 1 h at room temperature before being terminated through mixing with 20 μL (0.2 mg) yttrium silicate SPA beads (PerkinElmer).

Data set [2] in a line: Blood Brain Barrier penetration (brain-to-plasma distribution). The settings on record: male CD mice, subcutaneous 10 mg/kg; for Kp at 0.5 h / Kp at 2 h: mouse, brain/plasma, sc; for Brain concentration after 30 minutes / Plasma concentration after 30 minutes / Kp at 0.5 h: 30 min; for Kp at 0.5 h: read-out: Brain/Plasma ratio after 30 minutes; for Brain concentration after 120 minutes / Plasma concentration after 120 minutes / Kp at 2 h: 120 min; for Kp at 2 h: read-out: Brain/Plasma ratio after 120 minutes. Type of data set: in vivo. As for the experimental part:
Male CD mice (20-24 g) were housed pair-wise with free access to food and water for an acclimatization period of 3-7 days before initiation of experiments. Prior to dosing the animals were fasted overnight. During testing, mice were kept in individual cages. The brain-to-plasma distribution was assessed 30 minutes and 2 hours after subcutaneous administration of the test compound at a dose of 10 mg/kg (n=3 at each time point). The dose volume was 10 ml/kg using appropriate vehicle to solubilize each test compound. At the time of sampling, animals were anesthetized with isoflurane and a systemic blood sample collected by cardiac puncture into vacutainers containing sodium heparin as anti-coagulant. The blood was centrifuged at 3500 rpm for 10 minutes at 4° C. to obtain plasma. Following decapitation, brains were dissected out and transferred to pre-weighed vessels followed by tissue weights determination. Plasma and brains were stored at −80° C. until quantitative bioanalysis by LC-MS/MS. Results are expressed as ng/ml for plasma and ng/g for brain samples.

The structures appear in SMILES notation.

Consider `O=c1[nH]c(CN2CC(Oc3cccnc3)C2)cn2c(C3CCOCC3)ncc12` [Compound (P2), 6-[3-(pyridin-3-yloxy)-azetidin-1-ylmethyl]-3-(tetrahydropyran-4-yl)-7H-imidazo[1,5-a]pyrazin-8-one], for which the IC50 in data set [1] came out at 5.28 µM. Further, in data set [2], the “Brain concentration after 30 minutes” value is “Below detection”, the “Plasma concentration after 30 minutes” value was 30 min.: 715 ng/mL, the “Brain concentration after 120 minutes” value was “Below detection” and the “Plasma concentration after 120 minutes” value was 120 min.: 11 ng/mL.
In data set [1], `O=c1[nH]c(CN2CC(Oc3ccncc3)C2)cn2c(-c3ccc(F)cc3)ncc12` [Compound (P1), 3-(4-fluorophenyl)-6-((3-(pyridin-4-yloxy)azetidin-1-yl)methyl)imidazo[1,5-a]pyrazin-8(7H)-one] registered an IC50 of 45.1 µM. In data set [2], the “Brain concentration after 30 minutes” value was 30 min.: 42 ng/mL, the “Plasma concentration after 30 minutes” value was 30 min.: 719 ng/mL, the “Brain concentration after 120 minutes” value was 120 min.: 7 ng/mL and the “Plasma concentration after 120 minutes” value is listed as 120 min.: 86 ng/mL. In data set [2], the Kp at 0.5 h is 0.06 and the Kp at 2 h worked out at 0.08.
Compound `C[C@@H]1CN(Cc2ncccn2)C[C@H]1c1cn2c(C3CCOCC3)ncc2c(=O)[nH]1` (single isomer, unassigned) [Compound (P3, enantiomer 1)] gave an IC50 in data set [1] of 3 µM. For the same compound, in data set [2], the “Brain concentration after 30 minutes” value was 30 min.: 67 ng/mL, the “Plasma concentration after 30 minutes” value is listed as 30 min.: 1620 ng/mL, the “Brain concentration after 120 minutes” value is recorded as 120 min.: 7 ng/mL and the “Plasma concentration after 120 minutes” value was 120 min.: 226 ng/mL. For the same compound, in data set [2], the Kp at 0.5 h stood at 0.04 and the Kp at 2 h stood at 0.03.
`C[C@@H]1CN(Cc2ncccn2)C[C@H]1c1nc2c(cnn2C2CCOCC2)c(=O)[nH]1` (single isomer, unassigned) [Reference compound, reference compound] displayed an IC50 in data set [1] of 2.5 µM.
Turning to `O=c1[nH]c(CN2CC(OCc3ccc(F)cc3)C2)nn2c(C3CCOCC3)ncc12` [Compound (P4)], in data set [2], the “Brain concentration after 30 minutes” value is reported as 30 min.: 125 ng/mL, the “Plasma concentration after 30 minutes” value is listed as 30 min.: 3380 ng/mL, the “Brain concentration after 120 minutes” value is 120 min.: 15 ng/mL and the “Plasma concentration after 120 minutes” value worked out at 120 min. 352 ng/mL.
